Measured values as given in ChEMBL document CHEMBL3232861, “Metabolites of antroquinonol found in rat urine following oral administration” (J Nat Prod, 2014).

Key:
Assay type in all cases: ADME, organism-based
Parameters in all cases: dose 200 mg/kg, route oral
Conditions in all cases: in vivo
[1] = Drug excretion in Wistar rat urine treated with antroquinonol at 200 mg/kg, po administered via gavage measured after 24 hrs by HPLC-SPE-TT-NMR analysis
[2] = Drug excretion in Wistar rat urine assessed as (E)-6-((1R,2R ,6R)-2,5-Dihy droxy-4-methoxy-6-methyl-3-oxocyclo-hex-4-enyl)-4-methylhex-3-enoic acid level at 200 mg/kg, po administered via gavage measured after 24 hrs by HPLC-SPE-TT-NMR analysis
[3] = Drug excretion in Wistar rat urine assessed as (E)-6-((1R,2R,6R)-2-Hydroxy-3,4-dimethoxy-6-methyl-5-oxocyclo-hex-3-enyl)-4-methylhex-3-enoic acid level at 200 mg/kg, po administered via gavage measured after 24 hrs by HPLC-SPE-TT-NMR analysis
[4] = Drug excretion in Wistar rat urine assessed as (E)-6-((1R,2R,6R)-2-Hydroxy-3,4-dimethoxy-6-methyl-5-oxocyclo-hex-3-enyl)-4-methylhex-4-enoic acid level at 200 mg/kg, po administered via gavage measured after 24 hrs by HPLC-SPE-TT-NMR analysis
[5] = Drug excretion in Wistar rat urine assessed as (E)-6-((1R,2R ,6R)-2,5-Dihy droxy-4-methoxy-6-methyl-3-oxocyclo-hex-4-enyl)-4-methylhex-4-enoic acid level at 200 mg/kg, po administered via gavage measured after 24 hrs by HPLC-SPE-TT-NMR analysis

Drug excretion [1]	Compound	other results
metabolite_detected	COC1=C(OC)[C@H](O)[C@H](C/C=C(\C)CCC(=O)O)[C@@H](C)C1=O	
metabolite_detected	COC1=C(OC)[C@H](O)[C@H](CC/C(C)=C/CC(=O)O)[C@@H](C)C1=O	
metabolite_detected	COC1=C(O)[C@H](C)[C@@H](CC/C(C)=C/CC(=O)O)[C@@H](O)C1=O	
metabolite_detected	COC1=C(O)[C@H](C)[C@@H](C/C=C(\C)CCC(=O)O)[C@@H](O)C1=O	
	COC1=C(OC)[C@H](O)[C@H](C/C=C(\C)CC/C=C(\C)CCC=C(C)C)[C@@H](C)C1=O [ANTROQUINONOL]	Drug excretion [2]: metabolite_detected; Drug excretion [3]: metabolite_detected; Drug excretion [4]: metabolite_detected; Drug excretion [5]: metabolite_detected
